Experiments:
[1] = system: Respiratory Syncytial Virus (RSV) long strain (ATCC#VR-26); experiment: RSV Antiviral Assay (CPE reduction assay); format: cell-based; conditions: human respiratory syncytial virus, 120 h; HEp-2 cells infected with RSV long strain, 5 days, CCK-8 readout; bins (Table 2: less than 1 μM; Table 3: equal to or higher than 1 μM and less than 50 μM); read-out: 50% effective concentration (EC50)
In short: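 Cytopathic-effect protection measured after 5 days at 37 °C, 5% CO2 via CCK-8 dehydrogenase readout at 450 nm (630 nm reference), EC50 regressed from mean O.D. Host HEp-2 cells received RSV long strain at 100 TCID50/well; compound 9-point ⅓ series starting 100 μM or 1 μM, 1% DMSO, duplicate wells.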

[2] = Cytotoxicity Determination; format: cell-based; conditions: human, HEp-2 cells, without addition of virus, CCK-8 readout, bins (Table 4: greater than 100 μM; Table 5: equal to or less than 100 μM and greater than 10 μM), read-out: 50% cytotoxicity concentration (CC50)
In short: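 CC50 was derived from CCK-8 optical density after a 3-4 h reagent incubation. Before that, cells without virus had been treated for 5 days at 37 °C, 5% CO2 with compound at seven ½-step final concentrations from 100 μM, in duplicate wells.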

Row | Structure (SMILES) | EC50 [1] | CC50 at 5 days [2]
1 | COc1ccc(C(=O)NCC(=O)c2ccc(OC)c(-c3cn[nH]c3)n2)cc1OC [Compound 1533] | 1 to 50 µM | > 100 µM
2 | C/C(=N\NC(=O)CNC(=O)c1ccc2c(c1)OC(F)(F)O2)c1csc2ccccc12 [Compound 474] | 1 to 50 µM | 10 to 100 µM
3 | COc1cc(C(=O)NCC(=O)c2cccc(-c3csc4c(F)cccc34)n2)ccc1OCCCCO [Compound 1223] | 1 to 50 µM | 10 to 100 µM
4 | COc1ccc(C(=O)NCC(=O)N/N=C(/c2csc3ccccc23)C(F)F)cc1OC [Compound 445] | 1 to 50 µM | > 100 µM
5 | COc1cc(C(=O)N[C@H](CCCCN)C(=O)c2ccc(OC)c(-c3csc4c(F)cccc34)n2)ccc1OCCO [Compound 1836] | 1 to 50 µM | 10 to 100 µM
6 | COc1ccc(C(=O)NCC(=O)N(C)/N=C/c2c(C#N)sc3c(F)cccc23)cc1OCCO [Compound 2303] | 1 to 50 µM | > 100 µM
7 | COCC/C(=N\NC(=O)CNC(=O)c1ccc(OCCO)c(OC)c1)c1csc2c(F)cccc12 [Compound 603A] | < 1 µM | > 100 µM
8 | O=C(NCC(=O)c1cccc(-c2csc3c(F)cccc23)n1)c1ccc(OCCO)c(O)c1 [Compound 1230] | 1 to 50 µM | 10 to 100 µM
9 | COc1cc(C(=O)NCC(=O)c2ccc(OC)c(-c3ccc(F)c(Cl)c3)n2)ccc1OCC(C)(C)O [Compound 1319] | < 1 µM | > 100 µM
10 | COc1ccc(C(=O)CNC(=O)c2ccncn2)nc1-c1ccc(F)c(Cl)c1 [Compound 4205] | 1 to 50 µM | > 100 µM
11 | CCOc1ccc(C(=O)NCC(=O)N/N=C/c2csc3c(F)cccc23)cc1OC [Compound 400-26] | < 1 µM | > 100 µM
12 | COc1cc(C(=O)NC(C)C(=O)c2ccc(OC)c(-c3csc4c(F)cccc34)n2)ccc1OCCO (centres unmarked) [Compound 1808] | < 1 µM | 10 to 100 µM
13 | COc1ccc(C(=O)CNC(=O)c2ccc(OCCO)cc2)nc1-c1ccc(F)c(Cl)c1 [Compound 1308] | 1 to 50 µM | > 100 µM
14 | COc1cc(-c2csc3c(F)cccc23)nc(C(=O)CNC(=O)c2ccc(OC)c(OC)c2)n1 [Compound 3401] | 1 to 50 µM | > 100 µM
15 | CCN(C)c1ccc(C(=O)NCC(=O)N/N=C(\C)c2csc3ccccc23)cc1OC [Compound 512] | 1 to 50 µM | 10 to 100 µM
16 | COc1cc(C(=O)NCC(=O)c2ccc(OC)c(-c3ccc(F)c(Cl)c3)n2)ccc1OC1COC1 [Compound 1312] | < 1 µM | > 100 µM
17 | CCN(CC)c1ccc(C(=O)NCC(=O)c2ccc(OC)c(-c3ccc(F)c(Cl)c3)n2)cc1 [Compound 1320] | 1 to 50 µM | > 100 µM
18 | COc1ccc(C(=O)NCC(=O)c2ccc(OC)c(-c3cncnc3)n2)cc1OC [Compound 1520] | 1 to 50 µM | > 100 µM
19 | COc1cc(C(=O)NCC(=O)c2ccc(OC)c(-c3ccc(C(F)(F)F)cc3)n2)ccc1OCCO [Compound 1605] | < 1 µM | 10 to 100 µM
20 | CCc1ccc(C(=O)CNC(=O)c2ccc(OC)c(OC)c2)nc1-c1csc2c(F)cccc12 [Compound 2105] | 1 to 50 µM | 10 to 100 µM

Row | Structure (SMILES) | EC50 [1] | CC50 at 5 days [2]
21 | COc1cc(C(=O)NCC(=O)N/N=C(\C)c2csc3ccccc23)ccc1O [Compound 478] | 1 to 50 µM | 10 to 100 µM
22 | COc1cc(C(=O)NCC(=O)c2cc(C(C)C)cc(-c3csc4c(F)cccc34)n2)ccc1OCCO [Compound 1227] | < 1 µM | 10 to 100 µM
23 | COc1cc(C(=O)NCC(=O)c2ccc3c(n2)-c2c(sc4c(F)cccc24)CO3)ccc1OCCO [Compound 2703] | 1 to 50 µM | 10 to 100 µM
24 | CCN1C/C(=N\NC(=O)CNC(=O)c2ccc(OC)c(OC)c2)c2c(sc3c(F)cccc23)C1 [Compound 400-23] | < 1 µM | > 100 µM
25 | COc1cc(C(=O)NC(CCO)C(=O)c2ccc(OC)c(-c3ccc(F)c(Cl)c3)n2)ccc1OCCO (centres unmarked) [Compound 1837] | < 1 µM | 10 to 100 µM
26 | CCCC/C(=N/NC(=O)CNC(=O)c1ccc(OCCO)c(OC)c1)c1csc2c(F)cccc12 [Compound 602] | < 1 µM | > 100 µM
27 | COc1ccc(C(=O)NCC(=O)N/N=C(\C)c2cc(C)sc2C)cc1OC [Compound 438] | 1 to 50 µM | > 100 µM
28 | COc1cc(C(=O)NCC(=O)c2ccc(OC)c(-c3ccc(F)c(Cl)c3)n2)ccc1OC(F)F [Compound 2646] | < 1 µM | 10 to 100 µM
29 | COc1ccc(C(=O)NCC(=O)c2ccc(OC)c(-c3cc(C(=O)NC4CCCCC4)ccc3F)n2)cc1OC [Compound 1514] | 1 to 50 µM | > 100 µM
30 | CCCC/C(=N\NC(=O)CNC(=O)c1cc(OC)c(OC)cc1Cl)c1csc2ccccc12 [Compound 247] | 1 to 50 µM | > 100 µM
31 | COCCOc1ccc(C(=O)NCC(=O)c2ccc(OC)c(-c3ccc(F)c(Cl)c3)n2)cc1 [Compound 1311] | 1 to 50 µM | > 100 µM
32 | COc1ccc(C(=O)NCC(=O)c2ccc(OC)c(-c3cccc4ccccc34)n2)cc1OC [Compound 1513] | 1 to 50 µM | 10 to 100 µM
33 | COCCc1ccc(C(=O)NCC(=O)c2ccc(OC)c(-c3ccc(F)c(Br)c3)n2)cc1OC [Compound 1334] | < 1 µM | 10 to 100 µM
34 | COc1ccc(C(=O)N(C)NC(=O)c2cccc(-c3csc4c(F)cccc34)n2)cc1OC [Compound 3101] | 1 to 50 µM | 10 to 100 µM
35 | COc1cc(C(=O)NCC(=O)c2ccc(OC)c(-c3ccc(F)c(Cl)c3)n2)ccc1OCC(N)=O [Compound 1316] | < 1 µM | > 100 µM
36 | COc1ccc(C(=O)NCC(=O)c2ccc(OC)c(-c3ccc(F)c(Cl)c3)n2)cc1F [Compound 2642] | 1 to 50 µM | > 100 µM
37 | COc1cccc(/C(=N/NC(=O)CNC(=O)c2ccc(OC)c(OC)c2)C(F)(F)F)c1 [Compound 450] | 1 to 50 µM | > 100 µM
38 | CNc1ccc(C(=O)CNC(=O)c2ccc(OCCO)c(OC)c2)nc1-c1csc2c(F)cccc12 [Compound 1253] | < 1 µM | > 100 µM
39 | COc1ccc2scc(/C(C)=N/NC(=O)CNC(=O)c3ccc(OC)c(OC)c3)c2c1 [Compound 400-9] | 1 to 50 µM | 10 to 100 µM
40 | COc1cc(C(=O)NCC(=O)c2ccc(OC)c(-c3ccc(F)cc3)n2)ccc1OCCO [Compound 1608] | < 1 µM | 10 to 100 µM

Row | Structure (SMILES) | EC50 [1] | CC50 at 5 days [2]
41 | COc1cc(C(=O)NCC(=O)c2cc(CO)cc(-c3csc4c(F)cccc34)n2)ccc1OCCO [Compound 1255] | < 1 µM | 10 to 100 µM
42 | COc1ccc(C(=O)NCC(=O)c2nc(-c3csc4c(F)cccc34)cc(C(C)C)c2OC)cc1OC [Compound 1341] | 1 to 50 µM | > 100 µM
43 | COCC/C(=N\NC(=O)CNC(=O)c1ccc(OC)c(OC)c1O)c1csc2c(F)cccc12 [Compound 300] | < 1 µM | 10 to 100 µM
44 | COc1ccc(C(=O)NCC(=O)c2ccc(OC)c(-c3ccc(C)cc3)n2)cc1OC [Compound 1530] | 1 to 50 µM | > 100 µM
45 | COc1ccc(C(=O)NCC(=O)c2ccc(OC)c(-c3ccc4[nH]cnc4c3)n2)cc1OC [Compound 1534] | 1 to 50 µM | > 100 µM
46 | COc1ccc(C(=O)CNC(=O)c2cc(C)on2)nc1-c1ccc(F)c(Cl)c1 [Compound 4202] | 1 to 50 µM | > 100 µM
47 | COc1ccc(C(=O)NCC(=O)c2ccc(OC)c(-c3ccc4ncccc4c3)n2)cc1OC [Compound 1507] | 1 to 50 µM | 10 to 100 µM
48 | COc1cc(C(=O)NCC(=O)c2cccc(-c3csc4c(F)cccc34)n2)ccc1OC1CNC1 [Compound 1251] | 1 to 50 µM | > 100 µM
49 | COc1cc(C(=O)NCC(=O)c2ccc(OC)c(-c3ccc(Cl)c(Cl)c3)n2)ccc1OCCO [Compound 1616] | < 1 µM | > 100 µM
50 | COc1cc(C(=O)CNC(=O)c2ccc(OC)c(OC)c2)nc(-c2ccc3[nH]nnc3c2)c1 [Compound 1403] | 1 to 50 µM | > 100 µM
51 | COc1cc(C(=O)NCC(=O)c2ccc(OC(F)(F)F)c(-c3csc4c(F)cccc34)n2)ccc1OCCO [Compound 2107] | 1 to 50 µM | 10 to 100 µM
52 | CCCC/C(=N\NC(=O)CNC(=O)c1cc(OC)c(OC)cc1Br)c1csc2ccccc12 [Compound 245] | 1 to 50 µM | 10 to 100 µM
53 | COCC/C(=N/NC(=O)CNC(=O)c1ccc(OC)c(OC)c1O)c1csc2c(F)cccc12 [Compound 400-21] | 1 to 50 µM | > 100 µM
54 | COc1cc(C(=O)NCC(=O)c2ccc(OC)c(-c3cnn4ccccc34)n2)ccc1OCCO [Compound 1345] | 1 to 50 µM | > 100 µM
55 | COc1ccc(C(=O)NCC(=O)N/N=C/c2c(C)[nH]c3ccccc23)cc1OC [Compound 403] | 1 to 50 µM | > 100 µM
56 | COCC/C(=N/NC(=O)CNC(=O)c1ccc(OCCO)c(OC)c1)c1csc2c(F)cccc12 [Compound 603B] | < 1 µM | > 100 µM
57 | COc1ccc(C(=O)NCC(=O)c2ccc(OC)c(-c3ccc(F)c(Cl)c3)n2)cc1OC [Compound 1529] | < 1 µM | > 100 µM
58 | COc1ccc(C(=O)NCC(=O)c2cccc(-n3ncc4c(F)cccc43)n2)cc1OC [Compound 2601] | 1 to 50 µM | > 100 µM
